# Legend:
# [1] = molecular target: GABA-A receptor; anion channel; assay: Displacement of [35S]TBPS from GABA-A receptor complex at low umolar concentration; type: protein-complex assay
# Rattus norvegicus = assay: Tested for minimum effective dose required to cause motor in coordination in Geller-Seifter model in CFY rats (route of administration is peroral 30 min before testing); type: functional; settings: po, read-out: MED
# [2] = molecular target: GABA-A receptor; anion channel; assay: Displacement of [3H]flunitrazepam from GABA-A central benzodiazepine receptor of mouse brain
# [3] = tested on: GABA-A receptor; anion channel; assay: Displacement of [35S]TBPS from GABA-A receptor complex at low umolar concentration (insoluble); type: protein-complex assay
# [4] = tested on: GABA-A receptor; anion channel; assay: Displacement of [3H]flunitrazepam from GABA-A central benzodiazepine receptor of mouse brain (insoluble)
Structure (SMILES),IC50 [1] [µM],minimal effective dose (Rattus norvegicus) [mg/kg],IC50 [2] [µM],IC50 [3],IC50 [4]
CCn1c2ccccc2c2c(N)c(C(=O)OC)c(C)nc21,5.9,5,> 100,–,–
C=CCOC(=O)c1c(C)nc2c(c1N)c1ccccc1n2C,3.8,20,> 100,–,–
CCOC(=O)c1c(C)nc2c(c1N)c1ccccc1n2C,4.6,10,> 100,–,–
COC(=O)c1c(-c2ccccc2)nc2c(c1N)c1ccccc1n2C,11.2,50,> 30,–,–
CNc1c(C(=O)OC)c(C)nc2c1c1ccccc1n2C,17.1,20,82.3,–,–
COC(=O)c1c(C)nc2c(c1N)c1ccccc1n2C1CCCC1,80,> 50,> 100,–,–
COC(=O)c1c(C)[nH]c2nc3ccccc3c-2c1N,–,5,–,Insoluble,Insoluble
COC(=O)c1c(C)nc2c(c1N)c1cc(Cl)ccc1n2C,–,50,–,Insoluble,Insoluble
Cc1nc2c(c(N)c1CO)c1ccccc1n2C,> 100,> 50,> 100,–,–
CCOC(=O)c1c(C)nc2c(c1N)c1ccccc1n2Cc1ccccc1,–,> 50,–,Insoluble,Insoluble
Cc1nc2c(c(N)c1C(=O)O)c1ccccc1n2C,> 100,> 50,> 100,–,–
COC(=O)c1c(C)nc2c(c1N)c1ccccc1n2C,14.6,10,> 100,–,–
Cc1nc2c(c(N)c1C(=O)OCc1ccccc1)c1ccccc1n2C,> 30,> 50,> 30,–,–
COC(=O)c1c(C)nc2c(c1N)c1ccccc1n2C(=O)OC,9.5,20,> 30,–,–
COP(=O)(OC)c1c(C)nc2c(c1N)c1ccccc1n2C,> 30,> 20,> 30,–,–
Cc1[nH]c2nc3ccccc3c-2c(N)c1C(N)=O,> 100,> 50,> 100,–,–
CN1C(=O)CN=C(c2ccccc2)c2cc(Cl)ccc21 [DIAZEPAM],–,2.5,–,–,–
CCCOC(=O)c1c(C)nc2c(c1N)c1ccccc1n2C,2.2,10,> 100,–,–

# Source: ChEMBL document CHEMBL1153654, “Synthesis and potential anxiolytic activity of 4-amino-pyrido[2,3-b]indoles” (Bioorg Med Chem Lett, 1993)
